From US12496327B2, “Methods and compositions for restoring STMN2 levels” (President and Fellows of Harvard College, priority 2019, dated 2025)
Where a SMILES comes first, the peptide text is derived from it. The star is where a group is joined. Cbz = O=C(OCc1ccccc1)*

What was measured:
STMN2 cryptic exon = assay: RT-PCR detection of STMN2 cryptic exon in hMNs; type: cell-based, human; conditions: hMNs treated with proteasome inhibitor
From the text: TDP-43 plays an important role in the nucleus regulating RNA splicing, and recent studies highlight its ability to suppress non-conserved or cryptic exons to maintain intron integrity (80). When cryptic exons are included in RNA transcripts, in many cases, their inclusion can affect normal levels of the gene product by disrupting its translation or by promoting nonsense-mediated decay (80). […] The sequencing data was examined for evidence of cryptic exons in genes observed to be reproducibly regulated by TDP-43 in human cancer cells (81). […] To accomplish this goal, an RT-PCR assay was developed to detect transcripts containing the cryptic exon (FIG. 5F). […] Total RNA was isolated from neurons using RNeasy Mini Kit (Qiagen) according to manufacturer's instructions. A total of 300-1000 ng of total RNA was used to synthesize cDNA by reverse transcription according to the iSCRIPT kit (Bio-rad). RT-PCR was then performed using one cryptic exon-specific primer and then analyzed using the Agilent 2200 Tapestation.

proteasome = assay: Proteasome activity assay (luciferase substrate) in neurons treated with MG-132; type: cell-based, human
From the text: (§1) N=6 separate wells of neurons. (Unpaired t test, P value <0.05). […] N=triplicate wells. Cells are viable after 1 day of treatment at all the concentrations tested and lower concentrations are tolerated for more extended periods of time. […] N=4 separate wells of neurons (Unpaired t test, P value <0.05).
(§2) A previous study established that proteasome inhibition in hMNs could trigger accumulation of mutant SOD-1 (31). It was, therefore, examined whether MG-132-mediated proteasome inhibition affected TDP-43 localization in hMNs as a potential model of sporadic ALS. First, the range and timing of small molecule treatment that could inhibit the proteasome without inducing overt cellular toxicity was established (FIGS. 14A-14D). […] Then a pulse-chase experiment was performed to determine the consequences of proteasome inhibition on TDP-43 localization (FIG. 5A). […] Thus, proteasome inhibition in hMNs induces a TDP-43 mislocalization that is reversible.

motor neurons = assay: Cell Titer Glo neuronal survival assay; type: cell-based, human
From the text: as §1, §2

TDP-43 [1] = assay: TDP-43 localization by immunostaining, Pearson's correlation with DAPI; type: cell-based, human
Description: as §2
For immunofluorescence, cells were fixed with ice-cold 4% PFA for 15 minutes at 4° C., permeabilized with 0.2% Triton-X in 1×PBS for 45 minutes and blocked with 10% donkey serum in 1×PBS-T (0.1% Tween-20) for 1 hour. Cells were then incubated overnight at 4° C. with primary antibody (diluted in blocking solution). At least 4 washes (5 min incubation each) with 1×PBS-T were carried out, before incubating the cells with secondary antibodies for 1 hour at room temperature (diluted in blocking solution). Nuclei were stained with DAPI. […] Micrographs were analyzed using FIJI software to determine the correlation coefficient.

TDP-43 [2] = assay: Immunoblot of TDP-43 in detergent-soluble (RIPA) and detergent-insoluble (UREA) fractions; type: cell-based, human
Description: To determine what happened to TDP-43 after proteasome inhibition, TDP-43 levels were examined by immunoblot analysis in both the detergent-soluble and detergent-insoluble fractions. […] Finally, STMN2 levels in neurons treated with either a short-term high dose or a long-term low dose of MG-132 were probed.
For analysis of TDP-43 and STMN2 protein expression levels, d10 MNs were lysed in RIPA buffer (150 mM Sodium Chloride; 1% Triton X-100; 0.5% sodium deoxycholate; 0.1% SDS; 50 mM Tris pH 8.0) containing protease and phosphatase inhibitors (Roche) for 20 min on ice, and centrifuged at high speed. 200 μL of RIPA buffer per well of 24-well culture were routinely used, which yielded ˜20 μg of total protein as determined by BCA (Thermo Scientific). After two washes with RIPA buffer, insoluble pellets were resuspended in 200 μl of UREA buffer (Bio-Rad). For immunoblot assays 2-3 μg of total protein were separated by SDS-PAGE (BioRad), transferred to PDVF membranes (BioRad) and probed with antibodies against TDP-43 (1:1000, ProteinTech Group), GAPDH (1:1000, Millipore) and STMN2 (1:3000, Novus). Insoluble pellets were loaded based on protein concentration of correspondent RIPA-soluble counterparts. […] GAPDH levels were used to normalized each sample, and LiCor software was used to quantitate protein band signal.

STMN2 transcript = assay: qRT-PCR analysis of STMN2 expression in hMNs; type: cell-based, human; conditions: either a short-term high dose or a long-term low dose, both cases
Description: Total RNA was isolated from d10 MNs for RNA-Seq experiments and validation assays using Trizol LS (Invitrogen) according to manufacturer's instructions. 500 μL were added per well of the 24-well cultures. A total of 300-1000 ng of total RNA was used to synthesize cDNA by reverse transcription according to the iSCRIPT kit (Bio-rad). Quantitative RT-PCR (qRT-PCR) was then performed using SYBR green (Bio-Rad) and the iCycler system (Bio-rad). Quantitative levels for all genes assayed were normalized using GAPDH expression. […] All primer sequences are available upon request. For next-generation RNA sequencing (RNA-Seq), at least two technical replicas per siRNA sample or AAVS1-TDP43 genotype were included in the analyses. After RNA extraction, samples with RNA integrity numbers (RIN) above 7.5, determined by a bioAnalyzer, were used for library preparation. In brief, RNA sequencing libraries were generated from ˜250 ng of total RNA using the illumina TruSeq RNA kit v2, according to the manufacturer's directions. Libraries were sequenced at the Harvard Bauer Core Sequencing facility on a HiSeq 2000 platform. All FASTQ files were analyzed using the bcbioRNASeq workflow and toolchain (90). The FASTQ files were aligned to the GRCh37/hg19 reference genome. Differential expression testing was performed using DESeq2 suite of bioinformatics tools (38). […]

STMN2 mRNA = STMN2 mRNA expression in HUES3, IG2 and CN7 cell lines stressed with MG132; type: cell-based, human
Description: Three cell lines, HUES3, IG2 (Stmn2 KO), and CN7 (cryptic exon deletion) were treated with normal media or media+1 uM MG132 for 24 hours to stress the cells. In HUES3 cells, the stressed condition had 52% STMN2 mRNA expression compared to the unstressed condition. In IG2 (Stmn2 KO) condition, unstressed cells had 13% expression, and when stressed, expression increased to 42%. […] It was shown that if several exons are knocked out the expression goes down, but if the TDP-43 binding site is removed, expression goes way up.

hMNs = assay: Neurite outgrowth assay (Sholl analysis) of hMNs; type: cell-based, human; conditions: STMN2+/+ hMNs, 10 μM
Description: Given the reported role of STMN2 in regulating axonal growth by promoting the dynamic instability of microtubules (77), phenotypic assays were carried out characterizing neurite outgrowth in the STMN2−/− hMNs. After 7 days in culture, sorted hMNs were fixed and stained for β-III-tubulin to label the neuronal processes (FIG. 4E).
Individual Tuj1-positive neurons used for Sholl analyses were randomly selected and imaged using a Nikon Eclipse TE300 with a 40× objective. The neurites were traced using the ImageJ (NIH) plugin NeuronJ (78), and Sholl analysis was performed using the Sholl tool of Fiji (96), quantifying the number of intersections at 10-μm intervals from the cell body. Statistical analysis was performed by comparing the number of intersections of KO clones with the parental WT line for each 10-μm interval using Prism 6 (Graph Pad, La Jolla, CA, USA). Significance was assessed by a standard Student's t-test, with a p value of p<0.05 considered as significant.

STMN2 transcripts = assay: ASO effect on STMN2 cryptic exon and full length transcripts during TDP-43 depletion; type: cell-based

## CC(C)C[C@H](NC(=O)[C@H](Cc1ccccc1)NC(=O)c1cnccn1)B(O)O [Bortezomib]
STMN2 cryptic exon
  transcripts containing the STMN2 cryptic exon (PCR product): presence of transcripts containing the STMN2 cryptic exon

## CC(C)C[C@@H](C=O)NC(=O)[C@H](CC(C)C)NC(=O)[C@H](CC(C)C)NC(=O)OCc1ccccc1 [MG-132] (Cbz-Leu-Leu-Leu-aldehyde)
proteasome; neurons treated with MG-132, N=4 wells (FIG. 14E)
  proteasome activity: significantly decreased proteasome activity
proteasome; overnight 1 μM treatment of hMNs
  proteasome activity: less than 10 % of normal activity
Motor neurons; 1 day of treatment, all concentrations tested (FIG. 14D)
  cell viability (neuronal survival): viable
Motor neurons; overnight 1 μM treatment
  tolerance of neurons to treatment without overt cellular toxicity: could withstand
TDP-43 [1]; 4 days after washout of 24 hour 1 μM pulse
  TDP-43 staining following washout: indistinguishable to unchallenged neurons
TDP-43 [1]; after 24 hour 1 μM pulse
  TDP-43 staining in the nucleus: greatly diminished
TDP-43 [2]; control neurons, low dose, detergent-soluble (RIPA) fraction
  TDP-43 levels in soluble lysates: significantly decreased
TDP-43 [2]; detergent-insoluble fraction
  TDP-43 in UREA (insoluble) fraction: become insoluble
STMN2 transcript
  STMN2 mRNA levels: significant decreases
STMN2 cryptic exon
  transcripts containing the STMN2 cryptic exon (PCR product): presence of transcripts containing the STMN2 cryptic exon
STMN2 mRNA; CN7 (Cryptic Exon Deletion) cells, 1 uM for 24 hours (stressed)
  STMN2 mRNA expression: 473%
STMN2 mRNA; HUES3 cells, 1 uM for 24 hours, compared to the unstressed condition
  STMN2 mRNA expression: 52%
STMN2 mRNA; IG2 (Stmn2 KO) cells, 1 uM for 24 hours (stressed)
  STMN2 mRNA expression: 42%

## C[C@@H](N)[C@H]1CC[C@H](C(=O)Nc2ccncc2)CC1 [Y-27632]
hMNs
  neurite outgrowth: enhancing the outgrowth

## TCTTCAGTATTGCTATTCAT (2'-MOE nucleotides, further chemistry not given here) [ASO (SEQ ID NO: 11), antisense oligonucleotide targeting the abortive or altered STMN2 RNA]
STMN2 transcripts; 2.5 μM (FIG. 69A)
  ability to decrease the abundance of cryptic exon containing transcripts: effectiveness
STMN2 transcripts; 2.5 μM, during TDP-43 depletion (FIG. 69B)
  ability to increase the abundance of full length STMN2 transcripts: effectiveness
